The record followed here is patent publication US9636365B2, “Antibacterial food composition” (NUTRIVERCELL, priority 2009, dated 2017).

Where two headings read alike, the source gives them in different places.

The subject of series [1] is E. coli strain sensitive to ATBs (S), NECS892841. As to the kind of experiment: MIC, dilution in liquid medium (CA-SFM), first S strain. Format: cell-based, Escherichia coli. Particulars: added composition at sub-inhibitory concentration (120 or 250 mg/L), 18 h, 37° C. The text has this: (§1) Six strains of Escherichia coli of different origins (cystitises, acute pyelonephritises, urinary chronic carriage), of different sensitivities to the main antibiotics customarily used in urinary infections and with different virulences, were selected from the strain library of the laboratory of the INSERM Espri 26 team: • 2 strains sensitive to ATBs: NECS892841 and NECS30090 • 2 strains resistant to quinolones: NECS858785 and NECS864598 • 2 strains secreting BLSE: NEC892420 and NEC118564
(§2) Three compositions were evaluated: • a composition comprising propolis powder on maltose dextrin • a composition comprising propolis powder on maltose dextrin and PACs of type A • a composition comprising maltose dextrin
(§3) Three antibiotics were studied: • ofloxacin • ceftriaxone • cefixime
(§4) The whole of the tubes were put into an oven at 37° C. overnight without stirring.

Series [2] has as its system E. coli strain sensitive to ATBs (S), NECS30090. Description: MIC, dilution in liquid medium (CA-SFM), second S strain. The format is cell-based, Escherichia coli. Particulars: second S strain row; added composition at sub-inhibitory concentration (120 or 250 mg/L); 18 h, 37° C.
Text: as §1, §2, §3, §4

The test system of series [3] is E. coli strain resistant to quinolones (OFX R), NECS858785. As to the kind of experiment: MIC, dilution in liquid medium (CA-SFM), first OFX R strain. Format: cell-based, Escherichia coli. Particulars: added composition at sub-inhibitory concentration (120 or 250 mg/L), 18 h, 37° C.
Text: as §1, §2, §3, §4

In series [4] the test system is E. coli strain resistant to quinolones (OFX R), NECS864598. Description: MIC, dilution in liquid medium (CA-SFM), second OFX R strain. Format: cell-based, Escherichia coli. Particulars: added composition at sub-inhibitory concentration (120 or 250 mg/L), 18 h, 37° C.
Text: as §1, §2, §3, §4

The test system of series [5] is E. coli strain secreting BLSE, NEC892420. As to the kind of experiment: MIC, dilution in liquid medium (CA-SFM), first BLSE strain. Format: cell-based, Escherichia coli. Particulars: added composition at sub-inhibitory concentration (120 or 250 mg/L), 18 h, 37° C.
Text: as §1, §2, §3, §4

Series [6] deals with E. coli strain secreting BLSE, NEC118564. As to the kind of experiment: MIC, dilution in liquid medium (CA-SFM), second BLSE strain. The format is cell-based, Escherichia coli. Particulars: added composition at sub-inhibitory concentration (120 or 250 mg/L), 18 h, 37° C.
Text: as §1, §2, §3, §4

A short description of series [7]: Quantification of propolis polyphenols in human urines after ingesting the composition. The format is in vivo. The procedure:
Two healthy volunteers of more than 18 years of age, with efficient contraception and having followed a normal diet, followed a regimen comprising the ingestion of gelatin capsules according to the composition of Example 3.
Two regimens were followed: • taking 6 gelatin capsules, • taking 8 gelatin capsules.
The taking of gelatin capsules was carried out at 8.00 am and the urines were collected by micturition in a sterile flask before ingestion, 1-6 hours after ingestion, 12 hours after ingestion and 24 hours after ingestion.
The collected urines are hydrolyzed by enzymatic hydrolysis (glucuronidase and sulfatase), and the polyphenols are then extracted and purified on Sep-Pack.
The polyphenols of propolis such as pinocembrin and galangin are then characterized and assayed.

`C=CC1=C(C(=O)O)N2C(=O)[C@@H](NC(=O)/C(=N\OCC(=O)O)c3csc(N)n3)[C@H]2SC1` [Cefixime, cefixime]: the “MIC of the antibiotic” value is 1 µg/mL in series [1]; 0.5 µg/mL in series [2]; 0.5 µg/mL in series [3]; 1 µg/mL in series [4]; 16 µg/mL in series [5]; 8 µg/mL in series [6].
In the case of `CO/N=C(\C(=O)N[C@@H]1C(=O)N2C(C(=O)O)=C(CSc3nc(=O)c(O)nn3C)CS[C@H]12)c1csc(N)n1` [Ceftriaxon, ceftriaxone], the “MIC of the antibiotic” value in series [1] is 1 µg/mL; in series [2], 0.5 µg/mL; in series [3] it was 0.25 µg/mL; in series [4], 0.5 µg/mL; in series [5], more than 32 µg/mL; in series [6], 32 µg/mL.
For the molecule `O=c1c(O)c(-c2ccccc2)oc2cc(O)cc(O)c12` [Galangin, galangin], the “amount in human urines” value in series [7] (1-6 h after ingestion of 6 gelatin capsules of Example 3, urine hydrolyzed) is recorded as 0.555 mg/L. For the same molecule, in series [7] (human, in vivo, 12 h after ingestion of 6 gelatin capsules of Example 3, read-out: amount in human urines), the concentration at 12 h was found to be 291 ng/mL. For the same molecule, the concentration at 24 h in series [7] (human, in vivo, 24 h after ingestion of 6 gelatin capsules of Example 3, read-out: amount in human urines) worked out at 157 ng/mL; in series [7] (human, in vivo, 24 h after ingestion of 8 gelatin capsules of Example 3, read-out: amount in human urines), 311 ng/mL.
As to `CC1COc2c(N3CCN(C)CC3)c(F)cc3c(=O)c(C(=O)O)cn1c23` (stereo not drawn) [Ofloxacin, ofloxacin], the “MIC of the antibiotic” value in series [1] is 1 µg/mL; in series [2] it was 0.25 µg/mL; in series [3], 2 µg/mL; in series [4] it was 32 µg/mL; in series [5], more than 32 µg/mL; in series [6] it was more than 32 µg/mL.
In the case of `O=C1C[C@@H](c2ccccc2)Oc2cc(O)cc(O)c21` [Pinocembrin, pinocembrin], the “amount in human urines” value in series [7] (human, in vivo) worked out at 3.344 mg/L. The concentration at 12 h in series [7] (human, in vivo, amount in human urines) was 1140 ng/mL.
